Results published in the supplement of paper PMC11208160.

Assay: recombinant UMI read abundance after kanamycin selection (control-corrected) (log10(CPM+1)); higher = more efficient recombination; extreme values may be limits of the assay; sequences stand for … in AGTGCAGAGAAAATCGGCCAGTTTTCTCTGCCTGCAGTCCGCATGCCGTGGGACCCCTTGGGTTCTAACCTGTTGCCTAGATTTATGCAGCGGACTGCCTTTCTCCCAAAGTGATAAACCGG…AGGTTGGTTTCACT; site = the 11-nt donor
In short: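 Values are reported as log10(CPM+1), obtained by converting sequencing counts to CPM, averaging replicates and scaling by control-derived factors. The counts came from recombinant UMIs amplified by PCR across the donor–target junction. These UMIs came from a pooled Escherichia coli screen of donor and donor-binding-loop pairs for the IS621 bridge recombinase, plated with IPTG (0.07 mM) plus kanamycin or left unselected, in two replicates each.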
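Also: IS621 bridge recombinase in Escherichia coli cells against a fixed T5 target plasmid.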

Sequence | recombinant UMI read abundance (log10)
ATGAAGACATGGACCGGTTTTCCCGGTAATCCGTATTTGCT (site AGGAAGACTTG) | 0
CGGACCTCATGGACCGGTTTTCCCGGTAATCCGTATTTGCT (site CGGACATCTAG) | 0.00704
CTAATATCATGGACCGGTTTTCCCGGTAATCCGTATTTGAC (site CTATTATCTGT) | 1.3
AGCCTTTCATGGACCGGTTTTCCCGGTAATCCGTATTTGAT (site AGCCTTTCTGT) | 0
GGGACGTCATGGACCGGTTTTCCCGGTAATCCGTATTTGAC (site GGGACGTCTGT) | 3.2
GGCAGTCCATGGACCGGTTTTCCCGGTAATCCGTATTTGAA (site GGCATTCCTTT) | 0
AAACATGCATGGACCGGTTTTCCCGGTAATCCGTATTTGAA (site AAACATGCTTT) | 2.15
TAGGAATCATGGACCGGTTTTCCCGGTAATCCGTATTTGCG (site TAGGATTCTCG) | 1.39
GCGCCCTCATGGACCGGTTTTCCCGGTAATCCGTATTTGAC (site GCGCCCTCTGT) | 2.76
TGCTAGGCATGGACCGGTTTTCCCGGTAATCCGTATTTGGT (site TGCTAGCCTAC) | 0.0225
GTATGCACATGGACCGGTTTTCCCGGTAATCCGTATTTGTA (site GTATGCACTGA) | 1.72
AAAGATTCATGGACCGGTTTTCCCGGTAATCCGTATTTGTT (site GAAGATTCTAA) | 0.233
GCCACGCCATGGACCGGTTTTCCCGGTAATCCGTATTTGTA (site GCCACGCCTTT) | 0.0209
TAGAAATCATGGACCGGTTTTCCCGGTAATCCGTATTTGCG (site TAGAAATCTCG) | 2.05
TGCTAGGCATGGACCGGTTTTCCCGGTAATCCGTATTTGGT (site TTCTAGGCTAC) | 0.0121
AGACTAGCATGGACCGGTTTTCCCGGTAATCCGTATTTGTT (site AGTCTAGCTAA) | 0.0145
CACCGCCCATGGACCGGTTTTCCCGGTAATCCGTATTTGTT (site CACAGCCCTAA) | 0.00423
TGTGCGGCATGGACCGGTTTTCCCGGTAATCCGTATTTGCT (site TATGCGGCTAG) | 0.00771
AATTATGCATGGACCGGTTTTCCCGGTAATCCGTATTTGTA (site AATTATGCTTA) | 1.02

Sequence | recombinant UMI read abundance (log10)
AGTAACGCATGGACCGGTTTTCCCGGTAATCCGTATTTGGT (site AGTAACGCTAC) | 1.7
CCTAATCCATGGACCGGTTTTCCCGGTAATCCGTATTTGGC (site CCTAATACTGC) | 0
GCCTCGCCATGGACCGGTTTTCCCGGTAATCCGTATTTGCT (site GCCTCGCCTAG) | 0
CAATCATCATGGACCGGTTTTCCCGGTAATCCGTATTTGCT (site CCATCATCTAG) | 0.883
TAGCTAGCATGGACCGGTTTTCCCGGTAATCCGTATTTGCA (site TAGCTAGCTTT) | 0.0133
CCGCTACCATGGACCGGTTTTCCCGGTAATCCGTATTTGCT (site CAGCTACCTAG) | 0
ACCAGTGCATGGACCGGTTTTCCCGGTAATCCGTATTTGGT (site ACAAGTGCTAC) | 0.0927
GTGCGATCATGGACCGGTTTTCCCGGTAATCCGTATTTGAC (site GTGCGATCTGT) | 1.92
GCCTCGCCATGGACCGGTTTTCCCGGTAATCCGTATTTGTA (site GCCGCGCCTTA) | 0.00878
GCGAACACATGGACCGGTTTTCCCGGTAATCCGTATTTGCT (site GCGAACACTAG) | 1.91
GAAGACTCATGGACCGGTTTTCCCGGTAATCCGTATTTGTT (site GAAGAATCTAA) | 0.423
GGATTGGCATGGACCGGTTTTCCCGGTAATCCGTATTTGGT (site GGAGTGGCTAC) | 0.0175
GACATCCCATGGACCGGTTTTCCCGGTAATCCGTATTTGAA (site GACATCCCTTT) | 0.475
TGAAGAACATGGACCGGTTTTCCCGGTAATCCGTATTTGGC (site TGAAGAACTGC) | 2.29
TGGCTCTCATGGACCGGTTTTCCCGGTAATCCGTATTTGCA (site TGGCTCTCTTG) | 1.86
AGGGCTACATGGACCGGTTTTCCCGGTAATCCGTATTTGCG (site AGGGCTACTCG) | 1.42
CTATTTCCATGGACCGGTTTTCCCGGTAATCCGTATTTGCG (site CTATTTCCTCG) | 0.264
AATTTGGCATGGACCGGTTTTCCCGGTAATCCGTATTTGTG (site GATTTGGCTCA) | 0.011
ACACATCCATGGACCGGTTTTCCCGGTAATCCGTATTTGAC (site ACACAACCTGT) | 0

Sequence | recombinant UMI read abundance (log10)
GCTCGCCCATGGACCGGTTTTCCCGGTAATCCGTATTTGAT (site GCTCGCCCTAT) | 0.567
AGGTAGGCATGGACCGGTTTTCCCGGTAATCCGTATTTGGC (site AAGTAGGCTGC) | 0.588
CGACTAACATGGACCGGTTTTCCCGGTAATCCGTATTTGGA (site CTACTAACTTC) | 0.554
ACAGGATCATGGACCGGTTTTCCCGGTAATCCGTATTTGCA (site ACAGGATCTTG) | 1.77
TTCCAAGCATGGACCGGTTTTCCCGGTAATCCGTATTTGAG (site TTCCAAGCTCT) | 0.0285
CGGACTACATGGACCGGTTTTCCCGGTAATCCGTATTTGAC (site CGGACTACTGT) | 2.98
AATGTCTCATGGACCGGTTTTCCCGGTAATCCGTATTTGAC (site AATGTTTCTGT) | 0
TCATACTCATGGACCGGTTTTCCCGGTAATCCGTATTTGCA (site TCATACCCTTG) | 0.303
ACTAGAACATGGACCGGTTTTCCCGGTAATCCGTATTTGAG (site ACTAGTACTCT) | 0.0383
AGAGTGGCATGGACCGGTTTTCCCGGTAATCCGTATTTGGT (site GGAGTGGCTAC) | 0.101
TAGCCTGCATGGACCGGTTTTCCCGGTAATCCGTATTTGGT (site TAGCCTCCTAC) | 0.00394
TAGGTAACATGGACCGGTTTTCCCGGTAATCCGTATTTGAC (site TAGGTAACTGT) | 2.17
TGTACACCATGGACCGGTTTTCCCGGTAATCCGTATTTGAC (site TGTACAACTGT) | 0
CGGACATCATGGACCGGTTTTCCCGGTAATCCGTATTTGCA (site CGGACATCTAG) | 0
TAGTTGGCATGGACCGGTTTTCCCGGTAATCCGTATTTGTG (site TACTTGGCTCA) | 0.0102
CTAGTCACATGGACCGGTTTTCCCGGTAATCCGTATTTGGG (site CAAGTCACTCC) | 0.00773
AAGCACGCATGGACCGGTTTTCCCGGTAATCCGTATTTGGA (site AAGCACGCTAC) | 0.0278
CCGTTAGCATGGACCGGTTTTCCCGGTAATCCGTATTTGAG (site CCGTTAGCTCT) | 0.692
CTTGTATCATGGACCGGTTTTCCCGGTAATCCGTATTTGAC (site CTTGTATCTGT) | 0
